“And” between values parts separate entries of the source, which are not always exact repeats. Identical values can stand only once.
What was measured:
Details in all cases: average where tested multiple times
BCAT2 [1] = target: T1, BCAT2 (Homo sapiens, UniProt O15382); assay: BCAT2 in vitro enzyme inhibition assay (resazurin/diaphorase-coupled fluorescence); assay type: biochemical
T1 sequence (O15382 28-392): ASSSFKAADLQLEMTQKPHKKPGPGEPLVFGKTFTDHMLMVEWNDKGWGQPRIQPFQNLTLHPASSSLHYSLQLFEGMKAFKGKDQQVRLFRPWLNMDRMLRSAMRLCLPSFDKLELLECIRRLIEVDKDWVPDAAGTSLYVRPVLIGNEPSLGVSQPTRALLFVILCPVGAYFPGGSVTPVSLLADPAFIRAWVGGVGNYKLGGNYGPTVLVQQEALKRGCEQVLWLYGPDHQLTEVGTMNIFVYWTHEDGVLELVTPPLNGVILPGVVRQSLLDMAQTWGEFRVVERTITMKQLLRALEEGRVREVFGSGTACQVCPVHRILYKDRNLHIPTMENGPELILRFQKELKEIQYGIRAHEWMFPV
In short: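 Coupled fluorescence readout: glutamate formed from L-leucine/α-ketoglutarate transamination drives GDH/NAD/diaphorase reduction of resazurin (Ex 540/Em 590). Human BCAT2 was first exposed 1 h at room temperature to compound, top final 100 μM in 3-fold, 10-point series; substrate reaction ran 1 h before SDS quench, in technical duplicate with DMSO max and enzyme-free min controls.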

hBCAT1 = target: T2, hBCAT1 (Homo sapiens, UniProt P54687); assay: BCAT1 in vitro enzyme inhibition assay (resazurin/diaphorase-coupled fluorescence); assay type: biochemical
T2 sequence (P54687 1-386): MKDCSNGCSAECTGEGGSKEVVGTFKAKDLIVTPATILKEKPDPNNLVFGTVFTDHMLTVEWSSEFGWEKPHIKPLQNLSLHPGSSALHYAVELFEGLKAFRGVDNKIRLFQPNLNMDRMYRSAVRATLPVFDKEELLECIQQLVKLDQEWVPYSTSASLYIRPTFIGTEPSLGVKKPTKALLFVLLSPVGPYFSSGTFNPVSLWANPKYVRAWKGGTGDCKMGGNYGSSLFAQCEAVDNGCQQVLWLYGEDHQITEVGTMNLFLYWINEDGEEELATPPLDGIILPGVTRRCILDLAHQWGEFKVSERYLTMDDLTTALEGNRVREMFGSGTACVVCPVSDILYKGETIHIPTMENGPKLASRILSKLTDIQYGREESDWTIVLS
In short: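 Human BCAT1 activity read by resazurin/diaphorase-coupled fluorescence. Compounds added from 50× DMSO stocks at 1:50, giving 10-point 3-fold titrations from 100 μM top final concentration. Run in technical duplicate; repeat tests averaged.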

BCAT2 [2] = target: T1, BCAT2; assay: BCAT2 in vitro cell inhibition using engineered A549 cells (KMV cell assay, 13C6-KMV by LC-MS/MS); assay type: cell-based; design: The result was an engineered A549 cell line that expressed endogenous BCAT2; endogenous in cells; host or cells: A549 cells with MUT and BCAT1 knocked out by CRISPR/CAS9; key to BCAT2 Cell Inhibition: A: less than or equal to 0.100 μM; B: greater than 0.100 and less than or equal to 0.500 μM; C: greater than 0.500 and less than or equal to 1.000 μM; d: greater than 1.000 μM; E: no fit

SMILES | IC50 (BCAT2 [1]) | IC50 (hBCAT1) | BCAT2 Cell Inhibition (BCAT2 [2]) | IC50 (BCAT2 [2])
O=C(O)Cc1ccccc1-c1nc2cnc(-n3nccn3)cc2n1[C@@H]1CCC[C@H](NC(=O)c2ncc(C(F)F)s2)C1 [Example 96, 2-(2-(1-((1R,3S)-3-(5-(difluoromethyl)thiazole-2-carboxamido)cyclohexyl)-6-(2H-1,2,3-triazol-2-yl)-1H-imidazo[4,5-c]pyridin-2-yl)phenyl)acetic acid] | 0.1 to 0.5 µM | 1 to 5 µM | E | 
CC(Oc1nc2cnc(-n3nccn3)cc2n1[C@@H]1CCC[C@H](NC(=O)c2ncc(C(F)F)s2)C1)C(F)(F)F (stereo partly drawn) [Example 98, N-((1S,3R)-3-(6-(2H-1,2,3-triazol-2-yl)-2-((1,1,1-trifluoropropan-2-yl)oxy)-1H-imidazo[4,5-c]pyridin-1-yl)cyclohexyl)-5-(difluoromethyl)thiazole-2-carboxamide] | 0.1 to 0.5 µM | > 5 µM |  | > 1 µM
O=C(N[C@H]1CCC[C@@H](n2c(-c3ccccc3C(=O)O)nc3cnc(-n4nccn4)cc32)C1)c1ncc(C(F)F)s1 [Example 99, 2-(1-((1R,3S)-3-(5-(difluoromethyl)thiazole-2-carboxamido)cyclohexyl)-6-(2H-1,2,3-triazol-2-yl)-1H-imidazo[4,5-c]pyridin-2-yl)benzoic acid] | ≤ 0.1 µM | 1 to 5 µM | E | 
O=C(N[C@H]1CCC[C@@H](n2c(OCC(F)(F)F)nc3cnc(-n4nccn4)cc32)C1)c1ncc(Cl)s1 [Example 101, N-((1S,3R)-3-(6-(2H-1,2,3-triazol-2-yl)-2-(2,2,2-trifluoroethoxy)-1H-imidazo[4,5-c]pyridin-1-yl)cyclohexyl)-5-chlorothiazole-2-carboxamide] | 0.1 to 0.5 µM | > 5 µM |  | > 1 µM
O=C(N[C@H]1CCC[C@@H](n2c(-c3ccccc3F)nc3cnc(-c4ccccn4)cc32)C1)c1ncc(Cl)s1 [Example 104, 5-chloro-N-((1S,3R)-3-(2-(2-fluorophenyl)-6-(pyridin-2-yl)-1H-imidazo[4,5-c]pyridin-1-yl)cyclohexyl)thiazole-2-carboxamide] | ≤ 0.1 µM | < 0.5 µM |  | ≤ 0.1 µM
Nc1cccc(-c2cc3c(cn2)nc(-c2ccccc2F)n3[C@@H]2CCC[C@H](NC(=O)c3ncc(Cl)s3)C2)n1 [Example 105, N-((1S,3R)-3-(6-(6-aminopyridin-2-yl)-2-(2-fluorophenyl)-1H-imidazo[4,5-c]pyridin-1-yl)cyclohexyl)-5-chlorothiazole-2-carboxamide] | ≤ 0.1 µM | < 0.5 µM |  | ≤ 0.1 µM
O=C(NC1CC(O)CC(n2c(-c3ccccc3F)nc3cnc(-n4nccn4)cc32)C1)c1ncc(C(F)F)s1 (stereo not drawn) [Example 106, 5-(difluoromethyl)-N-(3-(2-(2-fluorophenyl)-6-(2H-1,2,3-triazol-2-yl)-1H-imidazo[4,5-c]pyridin-1-yl)-5-hydroxycyclohexyl)thiazole-2-carboxamide] | ≤ 0.1 µM | < 0.5 µM |  | ≤ 0.1 µM
O=C(NC1CC(O)CC(n2c(-c3ccccc3F)nc3cnc(-n4nccn4)cc32)C1)c1ncc(Cl)s1 (stereo not drawn) [Example 109, 5-chloro-N-(3-(2-(2-fluorophenyl)-6-(2H-1,2,3-triazol-2-yl)-1H-imidazo[4,5-c]pyridin-1-yl)-5-hydroxycyclohexyl)thiazole-2-carboxamide] | ≤ 0.1 µM | < 0.5 µM |  | ≤ 0.1 µM
O=C(NC1CCCC(n2c(-c3ccccc3F)nc3cnc(-n4nccn4)cc32)C1O)c1ncc(Cl)s1 (stereo not drawn) [Example 112, 5-chloro-N-(3-(2-(2-fluorophenyl)-6-(2H-1,2,3-triazol-2-yl)-1H-imidazo[4,5-c]pyridin-1-yl)-2-hydroxycyclohexyl)thiazole-2-carboxamide] | ≤ 0.1 µM | < 0.5 µM |  | ≤ 0.1 µM
O=C(NC1CC(O)CC(n2c(-c3ccccc3F)nc3cnc(-c4nnc[nH]4)cc32)C1)c1ncc(Cl)s1 (stereo not drawn) [Example 115, 5-chloro-N-(3-(2-(2-fluorophenyl)-6-(4H-1,2,4-triazol-3-yl)-1H-imidazo[4,5-c]pyridin-1-yl)-5-hydroxycyclohexyl)thiazole-2-carboxamide] | ≤ 0.1 µM | < 0.5 µM |  | ≤ 0.1 µM
C#Cc1ccc(C(=O)NC2CC(n3c(-c4ccccc4F)nc4cnc(-c5ncco5)cc43)CN(C)C2)s1 (stereo not drawn) [Example 116, 5-ethynyl-N-(5-(2-(2-fluorophenyl)-6-(oxazol-2-yl)-1H-imidazo[4,5-c]pyridin-1-yl)-1-methylpiperidin-3-yl)thiophene-2-carboxamide] | ≤ 0.1 µM | < 0.5 µM |  | ≤ 0.1 µM
CN1CC(NC(=O)c2ccc(Br)s2)CC(n2c(-c3ccccc3F)nc3cnc(-c4ncco4)cc32)C1 (stereo not drawn) [Example 117, 5-bromo-N-(5-(2-(2-fluorophenyl)-6-(oxazol-2-yl)-1H-imidazo[4,5-c]pyridin-1-yl)-1-methylpiperidin-3-yl)thiophene-2-carboxamide] | ≤ 0.1 µM | 0.5 to 1 µM |  | ≤ 0.1 µM
CC(=O)N1CC(NC(=O)c2ccc(Br)s2)CC(n2c(-c3ccccc3F)nc3cnc(-c4ncco4)cc32)C1 (stereo not drawn) [Example 118, N-(1-acetyl-5-(2-(2-fluorophenyl)-6-(oxazol-2-yl)-1H-imidazo[4,5-c]pyridin-1-yl)piperidin-3-yl)-5-bromothiophene-2-carboxamide] | ≤ 0.1 µM | < 0.5 µM |  | ≤ 0.1 µM
CC(=O)N1CC(NC(=O)c2ncc(C(F)F)s2)CC(n2c(-c3ncccc3F)nc3cnc(-n4nccn4)cc32)C1 (stereo not drawn) [Example 119, N-(1-acetyl-5-(2-(3-fluoropyridin-2-yl)-6-(2H-1,2,3-triazol-2-yl)-1H-imidazo[4,5-c]pyridin-1-yl)piperidin-3-yl)-5-(difluoromethyl)thiazole-2-carboxamide] | ≤ 0.1 µM | < 0.5 µM |  | 0.1 to 0.5 µM
CC(=O)N1CC(NC(=O)c2ncc(C(F)F)s2)CC(n2c(-c3ncccc3F)nc3cnc(-n4ccnn4)cc32)C1 (stereo not drawn) [Example 120, N-(1-acetyl-5-(2-(3-fluoropyridin-2-yl)-6-(1H-1,2,3-triazol-1-yl)-1H-imidazo[4,5-c]pyridin-1-yl)piperidin-3-yl)-5-(difluoromethyl)thiazole-2-carboxamide] | ≤ 0.1 µM | 1 to 5 µM and > 5 µM |  | > 1 µM
CC(=O)N1CC(NC(=O)c2ncc(C(F)F)s2)CC(n2c(-c3ccccn3)nc3cnc(-n4nccn4)cc32)C1 (stereo not drawn) [Example 121, N-(1-acetyl-5-(2-(pyridin-2-yl)-6-(2H-1,2,3-triazol-2-yl)-1H-imidazo[4,5-c]pyridin-1-yl)piperidin-3-yl)-5-(difluoromethyl)thiazole-2-carboxamide] | ≤ 0.1 µM | 0.5 to 1 µM |  | 0.1 to 0.5 µM
CC(=O)N1CC(NC(=O)c2ncc(C(F)F)s2)CC(n2c(-c3ccccn3)nc3cnc(-n4ccnn4)cc32)C1 (stereo not drawn) [Example 122, N-(1-acetyl-5-(2-(pyridin-2-yl)-6-(1H-1,2,3-triazol-1-yl)-1H-imidazo[4,5-c]pyridin-1-yl)piperidin-3-yl)-5-(difluoromethyl)thiazole-2-carboxamide] | 0.1 to 0.5 µM | > 5 µM | E | 
CC(=O)N1CC(NC(=O)c2ncc(C(F)F)s2)CC(n2c(-c3ccccc3F)nc3cnc(-n4nccn4)cc32)C1 (stereo not drawn) [Example 123, N-(1-acetyl-5-(2-(2-fluorophenyl)-6-(2H-1,2,3-triazol-2-yl)-1H-imidazo[4,5-c]pyridin-1-yl)piperidin-3-yl)-5-(difluoromethyl)thiazole-2-carboxamide] | ≤ 0.1 µM | < 0.5 µM |  | ≤ 0.1 µM
CC(=O)N1CC(NC(=O)c2ncc(C(F)F)s2)CC(n2c(-c3ccccc3F)nc3cnc(-n4ccnn4)cc32)C1 (stereo not drawn) [Example 124, N-(1-acetyl-5-(2-(2-fluorophenyl)-6-(1H-1,2,3-triazol-1-yl)-1H-imidazo[4,5-c]pyridin-1-yl)piperidin-3-yl)-5-(difluoromethyl)thiazole-2-carboxamide] | ≤ 0.1 µM | 1 to 5 µM |  | 0.1 to 0.5 µM

Source: patent US20260159512A1, “BCAT2 INHIBITORS” (AGIOS PHARMACEUTICALS, INC., priority 2021, published 2026)
